Experimental data taken from paper PMC7248693, “Synthesis and Biological Evaluation of 2-Substituted Benzyl-/Phenylethylamino-4-amino-5-aroylthiazoles as Apoptosis-Inducing Anticancer Agents” (Molecules, 2020).
Each block holds one compound with its values, some of them ahead of it.

Experiments:
[1] = test system: CDK9; design: method as in PMID 30454645; conditions: cited from earlier work
[2] = test system: tubulin; conditions: previously reported series with general structure 2; reference not printed at the place; read-out: IC50 tubulin assembly assay; cited from earlier work
[3] = test system: panel of four different cancer cell lines; design: method as in earlier work; conditions: read-out: IC50 against a panel of four different cancer cell lines; cited from earlier work
[4] = test system: SK-MEL-1; experiment: Antiproliferative activity, MTT assay, SK-MEL-1 cells; type: cell-based, human; conditions: Homo sapiens, SK-MEL-1; 72 h, MTT; mean ± SE, at least three independent experiments
Text: (§1) In Table 1, we summarize the antiproliferative activity of the 15 novel 2-arylalkylamino-4-amino-5-(3′,4′,5′-trimethoxybenzoyl)thiazole derivatives 8a–o against human leukemia (U-937) and melanoma (SK-MEL-1) tumor cells lines.
(§2) Human U-937 and SK-MEL-1 cell lines were from the German Collection of Microorganisms and Cell Cultures (Braunschweig, Germany; DSMZ No: ACC 5 and ACC 303, respectively). The U-937 is a myeloid leukemia cell line isolated from a histiocytic lymphoma. SK-MEL-1 is a melanoma cell line. Cells were cultured in suspension in RPMI 1640 medium supplemented with 10% (v/v) fetal bovine serum and antibiotics (100 μg mL^−1 streptomycin and 100 U mL^−1 penicillin), at 37 °C in a humidified atmosphere containing 5% CO2. The trypan blue exclusion method was used for counting the cells by a hemocytometer, and cell viability was always greater than 95% in all experiments. Compounds were dissolved in DMSO, and further dilutions were made in culture medium just before use. […] The effects on cell viability of synthetic compounds were determined using a colorimetric assay with the reduction of 3-(4,5-dimethyl-2-thiazolyl-)-2,5-diphenyl-2H-tetrazolium bromide (MTT) as previously described. Briefly, 5 × 10^3 cells were seeded in 96-well microculture plates with increasing concentrations of compounds for 72 h. Then, MTT (0.5 mg mL^−1) was added and incubated for 4 h, and the reaction was stopped with 20% sodium dodecyl sulfate. A570 was used as a measure of cell viability. Concentrations inducing a 50% inhibition of cell growth were determined graphically by nonlinear regression using the curve-fitting algorithm of GraphPad Prism 4.0 (GraphPad Inc La Jolla, CA, USA).

[5] = test system: U-937; experiment: Antiproliferative activity, MTT assay, U-937 cells; type: cell-based, human; conditions: for IC50: Homo sapiens, U-937, 72 h, MTT, mean ± SE, at least three independent experiments
Text: as §1, §2

[6] = molecular target: T1, CDK6/Cyclin D3 (Homo sapiens, UniProt Q00534); experiment: In vitro CDK inhibition assay (ADP-Glo), CDK6; type: biochemical; conditions: single concentration of 10 μM; range over CDK4, CDK6, CDK9 and 8f, 8k; read-out: enzyme inhibition CDK6
T1 construct: purchased Promega
T1 sequence (Q00534 whole entry): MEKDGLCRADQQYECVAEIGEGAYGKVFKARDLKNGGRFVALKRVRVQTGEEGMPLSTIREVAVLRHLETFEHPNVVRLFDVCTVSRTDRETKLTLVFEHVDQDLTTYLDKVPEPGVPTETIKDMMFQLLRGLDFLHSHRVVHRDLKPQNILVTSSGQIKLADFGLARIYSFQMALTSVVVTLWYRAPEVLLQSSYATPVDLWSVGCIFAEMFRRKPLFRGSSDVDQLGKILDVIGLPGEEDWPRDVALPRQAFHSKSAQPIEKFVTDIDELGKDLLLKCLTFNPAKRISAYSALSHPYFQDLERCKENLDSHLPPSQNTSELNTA
T1 sequence (P30281 whole entry partner): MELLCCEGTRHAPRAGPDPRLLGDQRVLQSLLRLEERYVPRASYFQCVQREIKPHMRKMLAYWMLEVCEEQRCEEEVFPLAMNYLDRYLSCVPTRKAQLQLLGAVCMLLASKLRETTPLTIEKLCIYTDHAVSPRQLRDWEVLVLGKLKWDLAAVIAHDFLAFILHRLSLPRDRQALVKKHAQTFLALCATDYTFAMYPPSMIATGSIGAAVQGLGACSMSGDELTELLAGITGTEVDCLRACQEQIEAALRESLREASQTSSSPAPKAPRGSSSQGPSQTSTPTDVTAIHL
Method: (§3) The CDK4, 6 and 9 inhibitory activies were determined using the CDK4/Cyclin D1 Assay kit (ProQinase, Freiburg im Breisgau, Germany), CDK6/Cyclin D3 Kinase Enzyme System (Promega, Milan, Italy) and CDK9/CyclinK Kinase Enzyme System (Promega) by ADP-Glo CDK assays following the manufacturer’s instructions. The assay was performed with the test compounds at 10 μM.

[7] = test system: Bovine brain tubulin; experiment: Inhibition of tubulin polymerization (turbidimetric assembly); type: biochemical
Method: Bovine brain tubulin was purified as described previously. To evaluate the effect of the compounds on tubulin assembly in vitro [31], varying concentrations were preincubated with 10 μM tubulin in glutamate buffer at 30 °C and then cooled to 0 °C. After addition of GTP, the mixtures were transferred to 0 °C cuvettes in a recording spectrophotometer and warmed to 30 °C, and the assembly of tubulin was observed turbidimetrically. The IC50 was defined as the compound concentration that inhibited the extent of assembly by 50% after a 20 min incubation.

[8] = molecular target: T2, CDK9/CyclinK (Homo sapiens, UniProt P50750); experiment: In vitro CDK inhibition assay (ADP-Glo), CDK9; type: biochemical; conditions: single concentration of 10 μM; range over CDK4, CDK6, CDK9 and 8f, 8k; read-out: enzyme inhibition CDK9
T2 construct: purchased Promega
T2 sequence (P50750 whole entry): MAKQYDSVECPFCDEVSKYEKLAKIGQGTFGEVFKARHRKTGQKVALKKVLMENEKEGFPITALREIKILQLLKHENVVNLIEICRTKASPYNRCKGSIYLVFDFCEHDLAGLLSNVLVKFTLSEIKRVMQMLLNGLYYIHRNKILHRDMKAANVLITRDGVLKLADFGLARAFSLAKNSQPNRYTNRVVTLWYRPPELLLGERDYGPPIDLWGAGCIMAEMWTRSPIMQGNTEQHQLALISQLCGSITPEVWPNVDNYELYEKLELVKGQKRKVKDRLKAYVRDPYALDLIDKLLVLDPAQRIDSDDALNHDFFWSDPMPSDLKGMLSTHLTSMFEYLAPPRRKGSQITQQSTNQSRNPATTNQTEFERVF
T2 sequence (O75909 whole entry partner): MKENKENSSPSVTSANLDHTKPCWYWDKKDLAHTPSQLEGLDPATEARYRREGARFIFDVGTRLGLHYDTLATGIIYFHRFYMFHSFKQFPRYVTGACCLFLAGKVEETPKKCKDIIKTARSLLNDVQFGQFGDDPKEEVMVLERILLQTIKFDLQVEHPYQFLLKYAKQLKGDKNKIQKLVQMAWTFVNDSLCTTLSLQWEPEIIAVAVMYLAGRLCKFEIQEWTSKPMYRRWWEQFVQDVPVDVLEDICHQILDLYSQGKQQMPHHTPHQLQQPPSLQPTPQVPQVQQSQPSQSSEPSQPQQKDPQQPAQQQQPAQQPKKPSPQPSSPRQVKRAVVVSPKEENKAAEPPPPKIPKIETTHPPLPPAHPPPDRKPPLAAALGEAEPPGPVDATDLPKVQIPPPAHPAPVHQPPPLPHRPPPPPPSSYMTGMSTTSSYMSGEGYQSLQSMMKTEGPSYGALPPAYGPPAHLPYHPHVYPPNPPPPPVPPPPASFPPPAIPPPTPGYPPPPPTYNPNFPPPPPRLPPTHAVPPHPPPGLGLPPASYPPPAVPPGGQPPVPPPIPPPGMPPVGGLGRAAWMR
Method: as §3

[9] = molecular target: T3, CDK4/Cyclin D1 (Homo sapiens, UniProt P11802); experiment: In vitro CDK inhibition assay (ADP-Glo), CDK4; type: biochemical; conditions: single concentration of 10 μM; range over CDK4, CDK6, CDK9 and 8f, 8k; read-out: enzyme inhibition CDK4
T3 construct: purchased ProQinase
T3 sequence (P11802 whole entry): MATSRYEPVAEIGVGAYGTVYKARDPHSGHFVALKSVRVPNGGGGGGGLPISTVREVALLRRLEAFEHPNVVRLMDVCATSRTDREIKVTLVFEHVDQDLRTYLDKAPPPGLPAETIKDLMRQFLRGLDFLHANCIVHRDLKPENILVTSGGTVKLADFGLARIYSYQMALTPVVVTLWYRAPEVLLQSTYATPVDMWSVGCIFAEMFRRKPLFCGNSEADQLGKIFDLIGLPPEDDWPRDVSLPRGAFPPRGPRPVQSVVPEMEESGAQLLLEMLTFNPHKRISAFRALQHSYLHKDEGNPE
T3 sequence (P24385 whole entry partner): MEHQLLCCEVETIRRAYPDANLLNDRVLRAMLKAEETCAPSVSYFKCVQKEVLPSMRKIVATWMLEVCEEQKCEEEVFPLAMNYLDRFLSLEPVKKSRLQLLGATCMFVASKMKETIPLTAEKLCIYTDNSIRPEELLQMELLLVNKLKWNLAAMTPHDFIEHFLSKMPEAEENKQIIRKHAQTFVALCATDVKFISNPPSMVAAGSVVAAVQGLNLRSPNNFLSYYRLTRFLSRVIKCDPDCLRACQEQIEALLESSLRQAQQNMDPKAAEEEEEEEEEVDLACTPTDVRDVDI
Method: as §3

[10] = Cytotoxicity against peripheral blood lymphocytes, MTT assay; type: cell-based; conditions: human, peripheral blood lymphocytes (PBL) from healthy donors, read-out: IC50 cytotoxic activity against normal cells (PBL)
Method: In order to investigate the selective antiproliferative activity of the new synthesized compounds, we tested representative derivatives 8f and 8k against peripheral blood lymphocytes (PBL) isolated from healthy donors.
PBLs from healthy donors were obtained by separation on Lymphoprep (Fresenius KABI Norge AS, Halden, Norway) gradient. After extensive washing, cells were resuspended (1.0 × 10^6 cells/mL) in RPMI-1640 with 10% fetal bovine serum and incubated overnight in a 96-well tissue culture microtiter plate. Varying compound concentrations were added to the cells, and the MTT assay was used to assess viability after a 48 h treatment.

[11] = test system: U-937 leukemia cells; experiment: Cell cycle analysis by flow cytometry (propidium iodide); type: cell-based, human
Method: Induction of apoptosis in cancer cells is recognized as an efficient strategy for cancer chemotherapy. For this reason, it was decided to determine whether these compounds display their cytotoxic action through alterations in cell cycle progression and induction of cell apotosis. To this end, the effects at different time periods (6, 12 and 24 h) with different concentrations (10 and 30 μM) of 8f and 8k on cell cycle progression on U-937 leukemia cells were investigated by flow cytometry analyses.
Flow cytometric analysis of propidium iodide-stained cells was performed as previously described. Briefly, U-937 cells were treated with the indicated compounds at the specified concentrations in RPMI 1640 medium. After treatments, cells were centrifuged for 10 min at 500× g, washed with cold phosphate-buffered saline (PBS), fixed with ice-cold 75% ethanol and stored at −20 °C for at least 1 h. Samples were then centrifuged at 500 × g for 10 min at 4 °C, washed with PBS, resuspended in 200 μL of PBS containing 100 μg mL^−1 RNase A and 50 μg mL^−1 propidium iodide and incubated for 1 h in the dark. The DNA content was analyzed by flow cytometry with a Becton-Dickinson FACSVerse^TM cytometer (BD Biosciences, San Jose, CA, USA). The percentage of cells in each phase of the cell cycle was determined for a minimum of 10^4 cells, and histograms were analyzed with Flowing 2.5.0 software.

SMILES: Nc1nc(N[C@H]2CC3CCC2C3)sc1C(=O)c1ccccc1[N+](=O)[O-] (stereo partly drawn) [compound 7, 2-(exo-2′-aminonorbornane)-4-amino-5-(2′-nitrobenzoyl)-thiazole]
- selectivity for CDK9 than for other CDKs [1]: at least 22 fold

SMILES: COc1cc(C(=O)c2sc(Nc3ccc(C)cc3)nc2N)cc(OC)c1OC [2b]
- IC50 [2]: 0.72 µM

SMILES: COc1cc(C(=O)c2sc(N(C)Cc3ccccc3)nc2N)cc(OC)c1OC [3a]
- IC50 [3]: < 200 µM

SMILES: COc1ccc(/C=C\c2cc(OC)c(OC)c(OC)c2)cc1O [CA-4, combretastatin A-4, reference compound]
- IC50 [4]: 3.1 ± 2.9 µM
- IC50 [2]: 1.4 µM
- IC50 [5]: 0.019 ± 0.012 µM

- IC50 [4]: 8 ± 4.3 µM
- inhibition at 10 µM [6]: 2 to 8%
- IC50 ([7]; 10 μM tubulin, 20 min incubation at 30 °C): > 20 µM
- inhibition at 10 µM [8]: 2 to 8%
- inhibition at 10 µM [9]: 2 to 8%
- IC50 [5]: 5.7 ± 1.3 µM
SMILES: COc1ccc(CCNc2nc(N)c(C(=O)c3cc(OC)c(OC)c(OC)c3)s2)cc1 [8k, (4-Amino-2-((4-methoxyphenethyl)amino)thiazol-5-yl)(3,4,5-trimethoxyphenyl)methanone]
- inhibition of tubulin polymerization ([7]; at high concentrations (up to 20 μM)): did not show any noteworthy inhibition
- increase of antiproliferative activity relative to 8j ([5]; cell line not specified (U-937 and SK-MEL-1)): 3-4 fold
- IC50 at 48 h [10]: > 100 µM
- % G1 ([11]; 6 h, 10 µM): 38.7 ± 0.3 %
- % G2-M ([11]; 6 h, 10 µM): 25.3 ± 0.2 %
- % S ([11]; 6 h, 10 µM): 30.7 ± 0.1 %
- % Sub-G1 ([11]; 6 h, 10 µM): 3.7 ± 0.4%
- % G1 ([11]; 6 h, 30 µM): 35.6 ± 0.5 %
- % G2-M ([11]; 6 h, 30 µM): 23.1 ± 0.4%
- % S ([11]; 6 h, 30 µM): 32.0 ± 0.5 %
- % Sub-G1 ([11]; 6 h, 30 µM): 7.6 ± 0.5 %
- % G1 ([11]; 12 h, 10 µM): 41.9 ± 0.1 %
- % G2-M ([11]; 12 h, 10 µM): 23.7 ± 1.4%
- % S ([11]; 12 h, 10 µM): 20.2 ± 0.4%
- % Sub-G1 ([11]; 12 h, 10 µM): 12.1 ± 0.8 %
- % G1 ([11]; 12 h, 30 µM): 17.3 ± 0.4 %
- % G2-M ([11]; 12 h, 30 µM): 29.9 ± 1.7 %
- % S ([11]; 12 h, 30 µM): 26.8 ± 0.2 %
- % Sub-G1 ([11]; 12 h, 30 µM): 24.3 ± 1.5 %
- % G1 ([11]; 24 h, 10 µM): 39.4 ± 0.2 %
- % G2-M ([11]; 24 h, 10 µM): 17.2 ± 0.6%
- % S ([11]; 24 h, 10 µM): 28.4 ± 1.1 %
- % Sub-G1 ([11]; 24 h, 10 µM): 12.7 ± 0.1 %
- % G1 ([11]; 24 h, 30 µM): 11.2 ± 0.9 %
- % G2-M ([11]; 24 h, 30 µM): 23.8 ± 2.9 %
- % S ([11]; 24 h, 30 µM): 11.5 ± 0.4 %
- % Sub-G1 ([11]; 24 h, 30 µM): 51.5 ± 4.2 %
- increase of apoptotic cells with respect to control cells ([11]; 24 h, 30 µM): ~15 fold
